Measurements published in US8937063B2 (Trustees of Tufts College, priority 2010, dated 2015).

How the values were obtained:
CETP mRNA = test: qPCR of liver and adipose mRNA in HF/HS hamsters; assay type: in vivo, hamster; settings: ARI-001 2240 mg/kg oral 18 days; relative to mean of vehicle
Text: (§1) Hamster livers and adipose were preared in manners similar to that described for ARI-001 concentration determination. Briefly, to prepare for analysis, a sample of liver was excised from the frozen mass, weighed, and homogenized with a tissue grinder followed by sonication in buffer. The solid materials were then removed by centrifugation. The resulting lysate was used in qPCR analysis to quantify the specific mRNA measured (vide infra) using primers designed for the specific sequences of interest. All mRNA quantities were normalized to vehicle-treated animal, and mRNA levels were expressed as a fold increase or decrease relative to vehicle-treated. […] During grinding, liquid nitrogen was added to ensure the sample of adipose remained solid. The ground sample was transferred to a tared tube to weigh total sample. This ground sample was treated with buffer and prepared for qPCR to quantify specific mRNA quantities.

adiponectin mRNA = test: qPCR of adipose mRNA in HF/HS hamsters; assay type: in vivo, hamster; settings: ARI-001 2240 mg/kg oral 18 days; relative to mean of vehicle
Text: as §1

high fat-fed hamsters = test: Liver function tests (AST, ALT) in plasma of chronically dosed hamsters; assay type: in vivo, hamster; settings: vs vehicle
Protocol: In order to investigate this, we examined the common liver functional enzymes AST and ALT in the plasma of hamsters from experiment described above in Example 3. These animals were dosed for 18 consecutive days, while being on a HF/HS diet for a total of nearly 5 weeks. We also examined the glucose levels in the plasma of these animals. For pharmacokinetic studies, we utilized wild type mice for both single and repeated administration study. Finally, pharmacokinetic studies were corroborated by data from single and repeated administration to monkeys.
This led to an investigation of liver function tests (AST, ALT) from plasma of hamsters dosed for 18 days with ARI-001. AST and ALT were measured using commercially available kits (Bio-Quant Diagnostic Kits, San Diego, Calif.). As expected, AST and ALT values from untreated hamsters (vehicle group) were very high, as the high fat diet leads to hepatomegaly and fatty liver. This disease state is reflected in the elevated AST and ALT levels.

[1] = Pharmacokinetics of multiple administrations to fasted monkeys; assay type: in vivo, Macaque monkeys; settings: 288 mg/kg oral gavage once per day, seven days
Protocol: ARI-001 was administered to monkeys via oral gavage once per day for a total of seven days. Blood samples were collected after the first and after the last administrations to measure plasma concentrations of ARI-001.

GPR109A = target: T1, GPR109A (Homo sapiens, UniProt Q8TDS4); test: PathHunter eXpress β-arrestin recruitment assay; assay type: cell-based; settings: concentrations up to 10 mM, 90 minutes
T1 construct: β-galactosidase enzyme fragment (ProLink-type complementation tag); expressed in transfected cells
T1 sequence (Q8TDS4 whole entry, the tested form may be a part): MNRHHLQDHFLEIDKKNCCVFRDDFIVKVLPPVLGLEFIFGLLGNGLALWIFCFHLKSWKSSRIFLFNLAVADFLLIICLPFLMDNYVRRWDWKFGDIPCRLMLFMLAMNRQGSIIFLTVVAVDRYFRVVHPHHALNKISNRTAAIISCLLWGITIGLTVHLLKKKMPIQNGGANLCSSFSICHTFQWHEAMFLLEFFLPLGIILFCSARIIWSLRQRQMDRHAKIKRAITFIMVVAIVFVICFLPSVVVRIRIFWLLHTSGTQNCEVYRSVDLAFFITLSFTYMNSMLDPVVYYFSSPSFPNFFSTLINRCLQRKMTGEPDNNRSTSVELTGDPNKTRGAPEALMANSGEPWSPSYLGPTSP
Text: Walters R W et al. (2009) J Clin Invest 119:1312-21. […] G protein-coupled receptor (GPCR) activity was detected by measuring the interaction of β-arrestin with the activated GPCR using […] enzyme fragment complementation.

mice = test: Doppler capillary blood flow (flush proxy) in mice; assay type: in vivo; settings: Doppler capillary blood flow measurements
healthy adult volunteers [2] = test: Human clinical trial, single escalating oral doses: flushing; assay type: in vivo; settings: single oral doses 500 to 6000 mg; preliminary
Protocol: (§2) A randomized, double-blind, placebo-controlled study is performed with sequential escalating doses by cohort with observations for 30 hours post dosing and return visit on 8th day. Study subjects are healthy male and female adult volunteers, age 18-60 years, with LDL-C>130 mg/dL and weight <85 kg. Subjects are randomly assigned to receive study drug or placebo.
(§3) Five periods of single dose escalation, with 8 subjects per cohort (6 drug: 2 placebo) involve a total 40 subjects. Appropriately blinded matching placebos are provided. Cohort 1 receives 500 mg of ARI-001 formulated as a single oral tablet, plus eleven placebo tablets; Cohort 2, 1000 mg taken as two 500 mg tablets of ARI-001, plus ten placebo tablets; Cohort 3, 2000 mg taken as four 500 mg tablets of ARI-001, plus eight placebo tablets; Cohort 4, 4000 mg taken as eight 500 mg tablets of ARI-001, plus four placebo tablets; Corhort 5, 6000 mg taken as twelve 500 mg tablets of ARI-001. Placebo-only subjects take twelve placebo tablets. Each tablet is a compressed, film-coated tablet suitable for oral administration. […]

healthy adult volunteers [3] = test: Human clinical trial, single escalating oral doses: triglycerides; assay type: in vivo; settings: preliminary, FIG. 22
Protocol: as §2, §3

[4] = Human clinical trial, single oral doses: serum concentration; assay type: in vivo; settings: serum, ARI-001 2000 mg single oral dose, preliminary, read-out: Cmax, serum
Protocol: Five periods of single dose escalation, with 8 subjects per cohort (6 drug: 2 placebo) involve a total 40 subjects. Appropriately blinded matching placebos are provided. Cohort 1 receives 500 mg of ARI-001 formulated as a single oral tablet, plus eleven placebo tablets; Cohort 2, […] of ARI-001, plus ten placebo tablets; Cohort 3, […] of ARI-001, plus eight placebo tablets; Cohort 4, […] of ARI-001, plus four placebo tablets; Corhort 5, […] of ARI-001. Placebo-only subjects take twelve placebo tablets. Each tablet is a compressed, film-coated tablet suitable for oral administration.
Pharmacokinetic samples are collected at 0-45 min pre-dose and at 0.5, 1, 1.5, 2, 4, 6, 8, 12, 24, 30 and 168 hours after dosing. […]
[…] […] Analysis of all samples is performed at a central laboratory.

O=C(O)c1ccc(CCN2CCOCC2)nc1 [ARI-001]
Adipose CETP mRNA per mg tissue (CETP mRNA): 1.72 ± 0.70 fold-change
Liver CETP mRNA per mg tissue (CETP mRNA): 2.05 ± 0.38 fold-change
Adipose Adiponectin mRNA per mg tissue (adiponectin mRNA): 2.00 ± 0.23 fold-change
AST (high fat-fed hamsters; 2240 mg/kg oral 18 days): drastically reduced
ALT (high fat-fed hamsters; 1120 and 2240 mg/kg oral 18 days, dose-dependent): similarly reduced
Cmax day 1 versus day 7 [1]: higher on day 7 than on day 1
concentrations 24 hours after first or last dose [1]: essentially identical
plasma concentrations day 1 versus day 7 [1]: very little difference
recruitment of β-arrestin to the membrane of cells expressing GPR109A (GPR109A): failed to recruit β-arrestin
capillary vasodilation or hyperemia (a proxy of flush) (mice): no evidence of capillary vasodilation or hyperemia
signs of flushing (healthy adult volunteers [2]): no patients exhibited any signs of flushing
change in triglycerides 4 hours after dosing (healthy adult volunteers [3]): dose response for triglyceride lowering
Cmax [4]: ~7500 ng/mL
